Measured values from patent US7781465B2, “Therapeutic oxazolidinones and thiazolidinones” (Allergan, Inc., priority 2007, dated 2010).

Experiments:
EP2 [1] = biological target: T1, EP2 (Homo sapiens, UniProt P43116); assay: EP2 flipr functional assay; format: cell-based
Description: (§1) U.S. Patent Application Publication No. 20070129552, incorporated by reference herein, describes the methods used to obtain the in vitro data in the table below.

hEP3A = biological target: T2, hEP3A (Homo sapiens, UniProt P43115); assay: Other receptors functional assay, hEP3A; format: cell-based
T2 sequence (P43115 1-390): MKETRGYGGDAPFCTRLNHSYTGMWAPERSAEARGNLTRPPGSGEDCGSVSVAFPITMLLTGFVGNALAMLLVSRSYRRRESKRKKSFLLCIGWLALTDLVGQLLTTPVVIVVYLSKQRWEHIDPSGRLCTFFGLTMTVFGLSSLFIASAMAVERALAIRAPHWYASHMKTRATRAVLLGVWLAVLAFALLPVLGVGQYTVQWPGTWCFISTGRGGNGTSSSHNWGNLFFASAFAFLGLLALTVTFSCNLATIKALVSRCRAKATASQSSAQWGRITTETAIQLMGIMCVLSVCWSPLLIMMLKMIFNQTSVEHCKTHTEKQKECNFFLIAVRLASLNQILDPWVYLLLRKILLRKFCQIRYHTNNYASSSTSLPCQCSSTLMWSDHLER
Description: as §1

EP4 [2] = biological target: T3, EP4 (Homo sapiens, UniProt P35408); assay: EP4 binding (Ki)
T3 sequence (P35408 whole entry): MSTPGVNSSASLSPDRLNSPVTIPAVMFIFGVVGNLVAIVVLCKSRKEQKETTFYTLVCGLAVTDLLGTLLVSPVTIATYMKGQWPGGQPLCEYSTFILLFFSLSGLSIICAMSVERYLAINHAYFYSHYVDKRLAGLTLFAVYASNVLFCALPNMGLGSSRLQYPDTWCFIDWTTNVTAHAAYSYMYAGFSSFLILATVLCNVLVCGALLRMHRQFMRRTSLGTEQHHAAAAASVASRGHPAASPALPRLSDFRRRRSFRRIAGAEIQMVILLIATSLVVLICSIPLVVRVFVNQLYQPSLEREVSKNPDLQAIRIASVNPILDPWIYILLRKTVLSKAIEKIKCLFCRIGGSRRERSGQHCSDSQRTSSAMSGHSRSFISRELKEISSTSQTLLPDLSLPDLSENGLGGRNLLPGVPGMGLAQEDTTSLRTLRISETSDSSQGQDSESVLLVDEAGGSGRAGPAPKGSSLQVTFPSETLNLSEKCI
Description: as §1

hDP = biological target: T4, hDP (Homo sapiens, UniProt Q13258); assay: Other receptors functional assay, hDP; format: cell-based
T4 sequence (Q13258 1-359): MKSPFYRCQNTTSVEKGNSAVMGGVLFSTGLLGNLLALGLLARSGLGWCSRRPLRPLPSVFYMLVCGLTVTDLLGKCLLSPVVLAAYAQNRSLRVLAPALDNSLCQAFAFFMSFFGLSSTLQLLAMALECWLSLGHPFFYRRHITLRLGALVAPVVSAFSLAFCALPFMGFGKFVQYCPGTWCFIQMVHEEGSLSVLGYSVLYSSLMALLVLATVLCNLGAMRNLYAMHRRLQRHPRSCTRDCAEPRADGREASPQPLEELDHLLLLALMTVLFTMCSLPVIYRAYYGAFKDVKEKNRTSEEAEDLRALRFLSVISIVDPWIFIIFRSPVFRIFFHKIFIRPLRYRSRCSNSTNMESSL
Description: as §1

EP2 [3] = biological target: T1, EP2; assay: EP2 binding (Ki)
Description: as §1

EP4 [4] = biological target: T3, EP4; assay: EP4 flipr functional assay; format: cell-based
Description: as §1

normotensive dogs [5] = assay: Intraocular pressure in normotensive dogs; format: in vivo, dog; conditions: 0.003%, once daily for 5 days, at 54 h
Experimental: (§2) U.S. Pat. No. 7,183,324 describes the methods used to obtain the in vitro results presented below.
(§3) Isopropyl 5-(3-((R)-3-(4-((S)-1-hydroxyhexyl)phenyl)-4-oxooxazolidin-2-yl)propyl)thiophene-2-carboxylate (12j) was tested in normotensive dogs at 0.003%, dosing once daily for 5 days. The maximum intraocular pressure (IOP) decrease from baseline was 5.4 mmHg (36%) at 54 h; the maximum ocular surface hyperemia (OSH) score was 1.75 at 50 h.

normotensive dogs [6] = assay: Ocular surface hyperemia in normotensive dogs; format: in vivo, dog; conditions: 0.003%, once daily for 5 days, at 50 h
Experimental: as §2, §3

T1 sequence (P43116 whole entry): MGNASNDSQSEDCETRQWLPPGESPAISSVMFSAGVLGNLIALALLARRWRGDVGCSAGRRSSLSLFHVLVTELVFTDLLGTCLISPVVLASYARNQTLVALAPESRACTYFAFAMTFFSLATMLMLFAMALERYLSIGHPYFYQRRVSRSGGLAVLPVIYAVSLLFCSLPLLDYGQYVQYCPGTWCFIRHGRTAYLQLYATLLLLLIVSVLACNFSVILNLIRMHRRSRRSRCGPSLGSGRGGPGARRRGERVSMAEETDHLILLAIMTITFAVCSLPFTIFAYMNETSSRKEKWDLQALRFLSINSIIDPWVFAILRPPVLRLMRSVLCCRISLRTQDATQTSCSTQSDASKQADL

EC50 (EP2 [1]) | EC50 (hEP3A) | Ki (EP4 [2]) | EC50 (hDP) | Ki (EP2 [3]) | EC50 (EP4 [4]) | maximum ocular surface hyperemia (OSH) score (normotensive dogs [6]) | Compound | maximum intraocular pressure (IOP) decrease from baseline (normotensive dogs [5]) | maximum intraocular pressure (IOP) decrease from baseline, percent (normotensive dogs [5])
3080 nM | – | > 10000 nM | > 10000 nM | 680 nM | – | – | O=C(O)c1ccc(CCCC2OCC(=O)N2c2ccccc2)s1 (stereo not drawn) [Example 9, 5-(3-(4-oxo-3-phenyloxazolidin-2-yl)propyl)thiophene-2-carboxylic acid] | – | –
– | – | – | – | – | – | 1.75 | CCCCC[C@H](O)c1ccc(N2C(=O)CO[C@@H]2CCCc2ccc(C(=O)OC(C)C)s2)cc1 [Example 12j, Isopropyl 5-(3-((R)-3-(4-((S)-1-hydroxyhexyl)phenyl)-4-oxooxazolidin-2-yl)propyl)thiophene-2-carboxylate] | 5.4 mmHg | 36%

Second part, the compound before the results:

Compound | EC50 (EP2 [1]) | EC50 (hEP3A) | Ki (EP4 [2]) | EC50 (hDP) | Ki (EP2 [3]) | EC50 (EP4 [4]) | maximum ocular surface hyperemia (OSH) score (normotensive dogs [6]) | maximum intraocular pressure (IOP) decrease from baseline (normotensive dogs [5]) | maximum intraocular pressure (IOP) decrease from baseline, percent (normotensive dogs [5])
CCCCC[C@H](O)c1ccc(N2C(=O)CO[C@H]2CCCc2ccc(C(=O)O)s2)cc1 (single isomer, unassigned) [Example 3] | 82 nM | 268 nM | > 10000 nM | 1970 nM | 90 nM | – | – | – | –
CCCCC[C@H](O)c1ccc(N2C(=O)CO[C@@H]2CCCc2ccc(C(=O)O)s2)cc1 (single isomer, unassigned) [Example 4] | 1.2 nM | 4 nM | > 10000 nM | 73 nM | 7 nM | – | – | – | –
CCCCCC(O)c1ccc(N2C(=O)CSC2CCCc2ccc(C(=O)O)s2)cc1 (stereo not drawn) [Example 1, 5-(3-(3-(4-(1-hydroxyhexyl)phenyl)-4-oxo-thiazolidin-2-yl)propyl)thiophene-2-carboxylic acid] | 4400 nM | 8320 nM | 1460 nM | – | 17500 nM | > 10000 nM | – | – | –
CCCCCC(O)c1ccc(N2C(=O)COC2CCCc2ccc(C(=O)O)s2)cc1 (stereo not drawn) [Example 2, 5-(3-(3-(4-(1-hydroxyhexyl)phenyl)-4-oxo-oxazolidin-2-yl)propyl)thiophene-2-carboxylic acid] | 8 nM | 11 nM | > 10000 nM | 213 nM | 14 nM | – | – | – | –
CCCCCCc1ccc(N2C(=O)COC2CCCc2ccc(C(=O)O)s2)cc1 (stereo not drawn) [Example 8, 5-(3-(3-(4-hexylphenyl)-4-oxooxazolidin-2-yl)propyl)thiophene-2-carboxylic acid] | 37 nM | 237 nM | 2130 nM | 656 nM | 3 nM | 12600 nM | – | – | –
